The record followed here is BindingDB's records for patent US20250195475 (Inventisbio, 2025).

The target of the experiment is Cyclin-dependent kinase 2/G1/S-specific cyclin-E1 (Homo sapiens, UniProt P24941+P24864). In words: TR-FRET Assay. The method, then:
Compound Preparation. Dissslove the compounds into DMSO solution to make 10 mM DMSO stock. Serially dilute the stock solution from highest concentration down to lowest in DMSO to make the compound stock plate (100× stock plates). To make 5× compound intermediate plate, add 38 μL of assay buffer (50 mM HEPES, pH 7.5, 0.05 mg/mL BSA, 10 mM MgCl2, 1 mM EGTA, 0.01% Tween-20, 2 mM DTT) into each well of the V-bottom plate; then transfer 2 μL of the stock compound solution of each concentration from the compound stock plate (100× stock), and mix well. Enzyme reaction. Transfer 2 μL compound from 5× intermediate plate into assay plate, then add 4 μL/well 2.5× Enzyme mix to assay plate, incubation for 10 min at room temperature. For positive control wells, add 4 μL/well assay buffer instead of Enzyme mix. Then add 4 μL/well 2.5× Substrate mix to assay plate, and incubation at 25° C. for 30 min at room temperature. After reaction, 10 μL 2× Detection mix (final 15 mM EDTA, 1× LANCE Detection Buffer, 0.5 nM Detection antibody) was added and incubated for 1 h prior to detection with excitation and emission at 320 and 665 nm (Tecan Spark TR-FRET mode Tecan).

`COCc1cc(C(=O)Nc2cc([C@H]3CC[C@@H](OC(=O)N4CCC5(CCC5)C4)C3)[nH]n2)n(C)n1` [US20250195475, Example 6] yielded a half-inhibitory concentration (IC50) of 0.8 nM.

As usually defined, the IC50 is the concentration that gives 50% inhibition. Higher therefore signals weaker potency.
